Results from PubChem BioAssay (NCI).
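1) Cells in 96-well plates. 2) Compound, 48 h, 5 concentrations. 3) Linear interpolation between surrounding doses. 4) Unreached endpoint = highest concentration. TGI marks complete inhibition of growth.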

Columns and labels:
Test in all cases: inhibition of tumour cell growth, NCI panel, 48 h
UO-31 renal = test system: UO-31 renal
UACC-62 melanoma = test system: UACC-62 melanoma
HOP-92 NSCLC = test system: HOP-92 NSCLC
SK-MEL-5 melanoma = test system: SK-MEL-5 melanoma
ACHN renal = test system: ACHN renal
CCRF-CEM leukemia = test system: CCRF-CEM leukemia
NCI-H460 lung = test system: NCI-H460 lung
UACC-257 melanoma = test system: UACC-257 melanoma
786-0 renal = test system: 786-0 renal

Structure (SMILES) | TGI (UO-31 renal) [µM] | TGI (UACC-62 melanoma) [µM] | TGI (HOP-92 NSCLC) [µM] | TGI (SK-MEL-5 melanoma) [µM] | TGI (ACHN renal) [µM] | TGI (CCRF-CEM leukemia) [µM] | TGI (NCI-H460 lung) [µM] | TGI (UACC-257 melanoma) [µM] | TGI (786-0 renal) [µM]
COC1(OC)c2ccccc2C2(O)c3ccccc3C(=O)C12 (stereo not given) | 86.8 | > 100 | > 100 | 31.9 | > 100 | 84.5 | > 100 | 83.9 | > 100
Cn1cnc([N+](=O)[O-])c1Sc1nnc(C(F)(F)F)n1C | > 100 | 33.5 | 34.7 | > 100 | 57.4 | 48.4 | > 100 | 32.9 | > 100
COc1ccc(/C=C/C(C(=O)O)C(=O)O)cc1 | > 100 | > 100 | > 100 | > 100 | > 100 | 82.3 | > 100 | > 100 | > 100
CCc1cccc(C(C)CC)c1NC(=O)CC1C(=O)Nc2ccccc2S1=O (stereo not given) | > 100 | > 100 | 46.3 | > 100 | > 100 | 90.3 | > 100 | > 100 | > 100
CN(C)CCNC(=O)c1cccc2c1nc(-c1ccccn1)c1ccccc12 | 22.7 | 31.4 | 39.7 | 28.7 | 35.3 | 51.7 | 23.2 | 30.4 | 43.7
COP1(=S)OCC2CCC[C@@H]2O1 (stereo not given in full) | > 100 | > 100 | > 100 | > 100 | > 100 | > 100 | > 100 | > 100 | > 100
COc1ccc(S(=O)(=O)N/N=C(\C)CN2C(=O)c3ccccc3C2=O)cc1 | > 100 | > 100 |  | > 100 | > 100 | > 100 | > 100 | > 100 | > 100
CC1(CO)C(=O)OC12CCCCC2 (stereo not given) | > 100 | > 100 | > 100 |  |  | > 100 |  | > 100 | > 100
COc1ccc(CCC2NCCc3cc(OC)c(OC)cc32)cc1 (stereo not given) | > 100 |  |  | > 100 | > 100 | > 100 | > 100 | > 100 | > 100
